Laboratory results as given in PubChem BioAssay (NCI).
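1) Cells in 96-well plates. 2) Compound, 48 h, 5 concentrations. 3) Linear interpolation between surrounding doses. 4) Unreached endpoint = highest concentration. At the TGI there is no net growth.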

Legend:
Assay in all cases: growth of human tumour cells (NCI), 48 h
[1] = system: 786-0 renal
[2] = system: A549 NSCLC
[3] = system: ACHN renal
[4] = system: BT-549 breast
[5] = system: CCRF-CEM leukemia
[6] = system: DU-145 prostate
[7] = system: EKVX NSCLC
[8] = system: HL-60(TB) leukemia
[9] = system: HS 578T breast
[10] = system: IGROV1 ovarian
[11] = system: K-562 leukemia
[12] = system: KM12 colon
[13] = system: M14 melanoma
[14] = system: MCF7 breast
[15] = system: MDA-MB-231 breast
[16] = system: MDA-MB-435
[17] = system: MDA-N
[18] = system: MOLT-4 leukemia
[19] = system: NCI-H226 lung
[20] = system: NCI-H23 lung
[21] = system: NCI-H460 lung
[22] = system: NCI-H522 lung
[23] = system: OVCAR-3 ovarian
[24] = system: OVCAR-4 ovarian
[25] = system: OVCAR-5 ovarian
[26] = system: OVCAR-8 ovarian
[27] = system: RXF 393 renal
[28] = system: SF-268 CNS
[29] = system: SF-295 CNS
[30] = system: SF-539 CNS
[31] = system: SK-MEL-5 melanoma
[32] = system: SNB-19 CNS
[33] = system: SNB-75 CNS
[34] = system: SR leukemia
[35] = system: T-47D breast
[36] = system: TK-10 renal
[37] = system: U251 CNS
[38] = system: UACC-257 melanoma
[39] = system: UO-31 renal
[40] = system: CAKI-1 renal
[41] = system: COLO 205 colon
[42] = system: HCC-2998 colon
[43] = system: HCT-116 colon
[44] = system: HCT-15 colon
[45] = system: HOP-62 NSCLC
[46] = system: HOP-92 NSCLC
[47] = system: HT29 colon
[48] = system: LOX IMVI melanoma
[49] = system: NCI/ADR-RES ovarian
[50] = system: PC-3 prostate
[51] = system: RPMI-8226 leukemia
[52] = system: SK-MEL-2 melanoma
[53] = system: SK-MEL-28 melanoma
[54] = system: SN12C renal
[55] = system: SW-620 colon
[56] = system: UACC-62 melanoma
[57] = system: A498 renal
[58] = system: SK-OV-3 ovarian
[59] = system: MALME-3M melanoma

CC(C)=Nn1cnc2c1NC(C)(C)N=C2C(N)=O
TGI [1]: > 10 µM
TGI [2]: > 10 µM
TGI [3]: > 10 µM
TGI [4]: > 10 µM
TGI [5]: > 10 µM
TGI [6]: > 10 µM
TGI [7]: > 10 µM
TGI [8]: > 10 µM
TGI [9]: > 10 µM
TGI [10]: > 10 µM
TGI [11]: > 10 µM
TGI [12]: > 10 µM
TGI [13]: > 10 µM
TGI [14]: > 10 µM
TGI [15]: 7.64 µM
TGI [16]: > 10 µM
TGI [17]: > 10 µM
TGI [18]: > 10 µM
TGI [19]: > 10 µM
TGI [20]: > 10 µM
TGI [21]: > 10 µM
TGI [22]: > 10 µM
TGI [23]: > 10 µM
TGI [24]: > 10 µM
TGI [25]: > 10 µM
TGI [26]: > 10 µM
TGI [27]: > 10 µM
TGI [28]: > 10 µM
TGI [29]: > 10 µM
TGI [30]: > 10 µM
TGI [31]: > 10 µM
TGI [32]: > 10 µM
TGI [33]: > 10 µM
TGI [34]: > 10 µM
TGI [35]: 8.19 µM
TGI [36]: > 10 µM
TGI [37]: > 10 µM
TGI [38]: > 10 µM
TGI [39]: > 10 µM

O=c1c2cc(I)ccc2nc(-c2cccs2)n1O
TGI [1]: > 100 µM
TGI [2]: 61.2 µM
TGI [3]: > 100 µM
TGI [4]: > 100 µM
TGI [40]: 98.4 µM
TGI [5]: 95.2 µM
TGI [41]: > 100 µM
TGI [6]: 96.9 µM
TGI [7]: > 100 µM
TGI [42]: > 100 µM
TGI [43]: > 100 µM
TGI [44]: > 100 µM
TGI [8]: > 100 µM
TGI [45]: > 100 µM
TGI [46]: 79.6 µM
TGI [47]: > 100 µM
TGI [10]: > 100 µM
TGI [11]: > 100 µM
TGI [12]: > 100 µM
TGI [48]: 80.4 µM
TGI [13]: > 100 µM
TGI [14]: > 100 µM
TGI [16]: > 100 µM
TGI [17]: > 100 µM
TGI [18]: > 100 µM
TGI [19]: > 100 µM
TGI [20]: > 100 µM
TGI [21]: > 100 µM
TGI [22]: > 100 µM
TGI [49]: > 100 µM
TGI [23]: 42.8 µM
TGI [24]: 96.9 µM
TGI [25]: > 100 µM
TGI [26]: > 100 µM
TGI [50]: > 100 µM
TGI [51]: > 100 µM
TGI [27]: > 100 µM
TGI [28]: > 100 µM
TGI [29]: > 100 µM
TGI [30]: > 100 µM
TGI [52]: > 100 µM
TGI [53]: > 100 µM
TGI [31]: > 100 µM
TGI [54]: > 100 µM
TGI [32]: 72 µM
TGI [34]: > 100 µM
TGI [55]: > 100 µM
TGI [35]: 77.5 µM
TGI [36]: 79.4 µM
TGI [37]: > 100 µM
TGI [38]: > 100 µM
TGI [56]: > 100 µM
TGI [39]: > 100 µM

S=c1[nH]nc(CCCCCCCCc2n[nH]c(=S)o2)o1
TGI [1]: > 100 µM
TGI [57]: > 100 µM
TGI [2]: > 100 µM
TGI [3]: > 100 µM
TGI [4]: > 100 µM
TGI [40]: > 100 µM
TGI [5]: > 100 µM
TGI [41]: > 100 µM
TGI [6]: > 100 µM
TGI [7]: > 100 µM
TGI [43]: > 100 µM
TGI [44]: > 100 µM
TGI [8]: > 100 µM
TGI [45]: > 100 µM
TGI [47]: > 100 µM
TGI [10]: > 100 µM
TGI [11]: > 100 µM
TGI [12]: > 100 µM
TGI [48]: > 100 µM
TGI [13]: > 100 µM
TGI [14]: > 100 µM
TGI [15]: > 100 µM
TGI [16]: > 100 µM
TGI [17]: > 100 µM
TGI [18]: > 100 µM
TGI [19]: > 100 µM
TGI [20]: > 100 µM
TGI [21]: > 100 µM
TGI [49]: > 100 µM
TGI [23]: > 100 µM
TGI [24]: > 100 µM
TGI [25]: > 100 µM
TGI [26]: > 100 µM
TGI [50]: > 100 µM
TGI [27]: > 100 µM
TGI [28]: > 100 µM
TGI [29]: > 100 µM
TGI [30]: > 100 µM
TGI [52]: > 100 µM
TGI [53]: > 100 µM
TGI [31]: > 100 µM
TGI [58]: > 100 µM
TGI [54]: > 100 µM
TGI [32]: > 100 µM
TGI [33]: > 100 µM
TGI [55]: > 100 µM
TGI [36]: > 100 µM
TGI [37]: > 100 µM
TGI [38]: > 100 µM
TGI [39]: > 100 µM

CSc1nc(C)c2c(n1)N(c1ccc(Cl)cc1)CC2
TGI [1]: > 100 µM
TGI [57]: > 100 µM
TGI [2]: > 100 µM
TGI [3]: > 100 µM
TGI [40]: > 100 µM
TGI [5]: > 100 µM
TGI [41]: > 100 µM
TGI [6]: > 100 µM
TGI [7]: > 100 µM
TGI [42]: > 100 µM
TGI [43]: > 100 µM
TGI [44]: > 100 µM
TGI [45]: > 100 µM
TGI [46]: > 100 µM
TGI [9]: > 100 µM
TGI [47]: > 100 µM
TGI [10]: > 100 µM
TGI [11]: > 100 µM
TGI [12]: > 100 µM
TGI [48]: > 100 µM
TGI [13]: > 100 µM
TGI [59]: > 100 µM
TGI [14]: > 100 µM
TGI [15]: > 100 µM
TGI [16]: > 100 µM
TGI [17]: > 100 µM
TGI [18]: > 100 µM
TGI [19]: > 100 µM
TGI [20]: > 100 µM
TGI [21]: > 100 µM
TGI [22]: > 100 µM
TGI [49]: > 100 µM
TGI [23]: > 100 µM
TGI [24]: > 100 µM
TGI [25]: > 100 µM
TGI [26]: > 100 µM
TGI [50]: > 100 µM
TGI [51]: > 100 µM
TGI [27]: > 100 µM
TGI [28]: > 100 µM
TGI [29]: > 100 µM
TGI [30]: > 100 µM
TGI [52]: > 100 µM
TGI [53]: > 100 µM
TGI [31]: > 100 µM
TGI [58]: > 100 µM
TGI [54]: > 100 µM
TGI [32]: > 100 µM
TGI [33]: 38.8 µM
TGI [34]: > 100 µM
TGI [55]: > 100 µM
TGI [35]: > 100 µM
TGI [36]: > 100 µM
TGI [37]: > 100 µM
TGI [38]: > 100 µM
TGI [56]: > 100 µM
